Laboratory results taken from the NIST ThermoML archive (doi:10.1021/je0301794).
± gives the expanded uncertainty stated by the source.

Assays:
[1] = excess molar enthalpy (molar enthalpy of mixing); xn = mol fraction of the nth substance listed; details: 318.15 K, 101.3 kPa, Liquid
[2] = xn = mol fraction of the nth substance listed; details: 101.3 kPa, Liquid

Structure (SMILES): CCCCCCCCC [nonane] + COC(=O)OC
- excess molar enthalpy ([1]; x2 = 0): 0 ± 0.000478 kcal/mol
- excess molar enthalpy ([1]; x2 = 0.1291): 0.24 ± 0.00526 kcal/mol
- excess molar enthalpy ([1]; x2 = 0.2483): 0.396 ± 0.00837 kcal/mol
- excess molar enthalpy ([1]; x2 = 0.3498): 0.489 ± 0.0103 kcal/mol
- excess molar enthalpy ([1]; x2 = 0.4426): 0.538 ± 0.0112 kcal/mol
- excess molar enthalpy ([1]; x2 = 0.5099): 0.549 ± 0.0115 kcal/mol
- excess molar enthalpy ([1]; x2 = 0.573): 0.55 ± 0.0115 kcal/mol
- excess molar enthalpy ([1]; x2 = 0.627): 0.533 ± 0.0112 kcal/mol
- excess molar enthalpy ([1]; x2 = 0.6622): 0.515 ± 0.0108 kcal/mol
- excess molar enthalpy ([1]; x2 = 0.6743): 0.509 ± 0.0108 kcal/mol
- excess molar enthalpy ([1]; x2 = 0.7043): 0.49 ± 0.0103 kcal/mol
- excess molar enthalpy ([1]; x2 = 0.748): 0.455 ± 0.00956 kcal/mol
- excess molar enthalpy ([1]; x2 = 0.7814): 0.427 ± 0.00908 kcal/mol
- excess molar enthalpy ([1]; x2 = 0.8236): 0.378 ± 0.00813 kcal/mol
- excess molar enthalpy ([1]; x2 = 0.8663): 0.316 ± 0.00669 kcal/mol
- excess molar enthalpy ([1]; x2 = 0.9069): 0.25 ± 0.0055 kcal/mol
- excess molar enthalpy ([1]; x2 = 0.9415): 0.18 ± 0.00406 kcal/mol
- excess molar enthalpy ([1]; x2 = 0.9752): 0.098 ± 0.00239 kcal/mol
- mass density ([2]; 293.15 K, x2 = 0): 717.7 ± 0.5 kg/m3
- mass density ([2]; 293.15 K, x2 = 0.0444): 724.2 ± 0.5 kg/m3
- mass density ([2]; 293.15 K, x2 = 0.0909): 731.4 ± 0.5 kg/m3
- mass density ([2]; 293.15 K, x2 = 0.1838): 747.3 ± 0.5 kg/m3
- mass density ([2]; 293.15 K, x2 = 0.28): 766.3 ± 0.5 kg/m3
- mass density ([2]; 293.15 K, x2 = 0.3783): 789 ± 0.5 kg/m3
- mass density ([2]; 293.15 K, x2 = 0.4778): 815.8 ± 0.5 kg/m3
- mass density ([2]; 293.15 K, x2 = 0.5789): 847.5 ± 0.5 kg/m3
- mass density ([2]; 293.15 K, x2 = 0.6816): 885.9 ± 0.5 kg/m3
- mass density ([2]; 293.15 K, x2 = 0.7851): 932.5 ± 0.5 kg/m3
- mass density ([2]; 293.15 K, x2 = 0.8921): 991.9 ± 0.5 kg/m3
- mass density ([2]; 293.15 K, x2 = 0.9461): 1028.3 ± 0.5 kg/m3
- mass density ([2]; 298.15 K, x2 = 0): 713.9 ± 0.5 kg/m3
- mass density ([2]; 298.15 K, x2 = 0.0247): 717.5 ± 0.5 kg/m3
- mass density ([2]; 298.15 K, x2 = 0.083): 726.1 ± 0.5 kg/m3
- mass density ([2]; 298.15 K, x2 = 0.1221): 732.4 ± 0.5 kg/m3
- mass density ([2]; 298.15 K, x2 = 0.1812): 742.6 ± 0.5 kg/m3
- mass density ([2]; 298.15 K, x2 = 0.2278): 751.4 ± 0.5 kg/m3
- mass density ([2]; 298.15 K, x2 = 0.317): 770 ± 0.5 kg/m3
- mass density ([2]; 298.15 K, x2 = 0.3986): 789.4 ± 0.5 kg/m3
- mass density ([2]; 298.15 K, x2 = 0.4701): 808.5 ± 0.5 kg/m3
- mass density ([2]; 298.15 K, x2 = 0.5281): 825.7 ± 0.5 kg/m3
- mass density ([2]; 298.15 K, x2 = 0.601): 849.8 ± 0.5 kg/m3
- mass density ([2]; 298.15 K, x2 = 0.6553): 869.8 ± 0.5 kg/m3
- mass density ([2]; 298.15 K, x2 = 0.7064): 890.4 ± 0.5 kg/m3
- mass density ([2]; 298.15 K, x2 = 0.7517): 910.5 ± 0.5 kg/m3
- mass density ([2]; 298.15 K, x2 = 0.7982): 933 ± 0.5 kg/m3
- mass density ([2]; 298.15 K, x2 = 0.8404): 955.5 ± 0.5 kg/m3
- mass density ([2]; 298.15 K, x2 = 0.8725): 973.9 ± 0.5 kg/m3
- mass density ([2]; 298.15 K, x2 = 0.9073): 995.7 ± 0.5 kg/m3
- mass density ([2]; 298.15 K, x2 = 0.9371): 1015.5 ± 0.5 kg/m3
- mass density ([2]; 298.15 K, x2 = 0.9711): 1040.4 ± 0.5 kg/m3
- mass density ([2]; 303.15 K, x2 = 0): 710.1 ± 0.5 kg/m3
- mass density ([2]; 303.15 K, x2 = 0.0444): 716.3 ± 0.5 kg/m3
- mass density ([2]; 303.15 K, x2 = 0.0909): 723.3 ± 0.5 kg/m3
- mass density ([2]; 303.15 K, x2 = 0.1838): 738.9 ± 0.5 kg/m3
- mass density ([2]; 303.15 K, x2 = 0.28): 757.5 ± 0.5 kg/m3
- mass density ([2]; 303.15 K, x2 = 0.3783): 779.7 ± 0.5 kg/m3
- mass density ([2]; 303.15 K, x2 = 0.4778): 805.9 ± 0.5 kg/m3
- mass density ([2]; 303.15 K, x2 = 0.5789): 837 ± 0.5 kg/m3
- mass density ([2]; 303.15 K, x2 = 0.6816): 874.8 ± 0.5 kg/m3
- mass density ([2]; 303.15 K, x2 = 0.7851): 920.7 ± 0.5 kg/m3
- mass density ([2]; 303.15 K, x2 = 0.8921): 979.7 ± 0.5 kg/m3
- mass density ([2]; 303.15 K, x2 = 0.9461): 1015.6 ± 0.5 kg/m3
- mass density ([2]; 313.15 K, x2 = 0): 702.2 ± 0.5 kg/m3
- mass density ([2]; 313.15 K, x2 = 0.0444): 708.3 ± 0.5 kg/m3
- mass density ([2]; 313.15 K, x2 = 0.0909): 715.1 ± 0.5 kg/m3
- mass density ([2]; 313.15 K, x2 = 0.1838): 730.4 ± 0.5 kg/m3
- mass density ([2]; 313.15 K, x2 = 0.28): 748.7 ± 0.5 kg/m3
- mass density ([2]; 313.15 K, x2 = 0.3783): 770.5 ± 0.5 kg/m3
- mass density ([2]; 313.15 K, x2 = 0.4778): 796 ± 0.5 kg/m3
- mass density ([2]; 313.15 K, x2 = 0.5789): 826.7 ± 0.5 kg/m3
- mass density ([2]; 313.15 K, x2 = 0.6816): 864 ± 0.5 kg/m3
- mass density ([2]; 313.15 K, x2 = 0.7851): 909.4 ± 0.5 kg/m3
- mass density ([2]; 313.15 K, x2 = 0.8921): 967.3 ± 0.5 kg/m3
- mass density ([2]; 313.15 K, x2 = 0.9461): 1002.8 ± 0.5 kg/m3
- mass density ([2]; 318.15 K, x2 = 0): 698.1 ± 0.5 kg/m3
- mass density ([2]; 318.15 K, x2 = 0.0409): 703.8 ± 0.5 kg/m3
- mass density ([2]; 318.15 K, x2 = 0.0763): 709 ± 0.5 kg/m3
- mass density ([2]; 318.15 K, x2 = 0.1089): 714 ± 0.5 kg/m3
- mass density ([2]; 318.15 K, x2 = 0.1249): 716.6 ± 0.5 kg/m3
- mass density ([2]; 318.15 K, x2 = 0.1452): 719.9 ± 0.5 kg/m3
- mass density ([2]; 318.15 K, x2 = 0.1957): 728.5 ± 0.5 kg/m3
- mass density ([2]; 318.15 K, x2 = 0.2309): 735 ± 0.5 kg/m3
- mass density ([2]; 318.15 K, x2 = 0.3153): 751.7 ± 0.5 kg/m3
- mass density ([2]; 318.15 K, x2 = 0.3894): 768.3 ± 0.5 kg/m3
- mass density ([2]; 318.15 K, x2 = 0.4732): 789.6 ± 0.5 kg/m3
- mass density ([2]; 318.15 K, x2 = 0.5442): 810.1 ± 0.5 kg/m3
- mass density ([2]; 318.15 K, x2 = 0.6088): 831.2 ± 0.5 kg/m3
- mass density ([2]; 318.15 K, x2 = 0.6356): 840.8 ± 0.5 kg/m3
- mass density ([2]; 318.15 K, x2 = 0.711): 870.1 ± 0.5 kg/m3
- mass density ([2]; 318.15 K, x2 = 0.761): 891.8 ± 0.5 kg/m3
- mass density ([2]; 318.15 K, x2 = 0.787): 904 ± 0.5 kg/m3
- mass density ([2]; 318.15 K, x2 = 0.8304): 926 ± 0.5 kg/m3
- mass density ([2]; 318.15 K, x2 = 0.8802): 954.1 ± 0.5 kg/m3
- mass density ([2]; 318.15 K, x2 = 0.9335): 987.7 ± 0.5 kg/m3
- mass density ([2]; 318.15 K, x2 = 0.9414): 993.1 ± 0.5 kg/m3
- mass density ([2]; 318.15 K, x2 = 0.972): 1015 ± 0.5 kg/m3
